Measured values published in the METLIN SMRT retention time set (Domingo-Almenara et al. 2019).

Assay: gradient 5% acetonitrile 3 min, to 50% in 2 min, to 85% in 15 min, held 3 min, 100 µL/min
Conditions: column: Zorbax Extend-C18 2.1 x 50 mm; eluents: water / acetonitrile, 0.1% formic acid
Method in brief: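 In both positive and negative ionization mode, a quadrupole time-of-flight mass spectrometer coupled to HPLC analyzed pure standards run in mixtures of ~100 molecules. The Zorbax Extend-C18 column (2.1 × 50 mm, 1.8 μm) was operated at 100 μL/min with water and acetonitrile, each containing 0.1% formic acid. The dead volume was 40 μL and the dwell volume 900 μL. Retention time came from adduct peaks that were computationally picked and individually inspected by hand.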
In the case of `CC(C)c1ccc(-c2nc(C3CC(=O)N(c4ccc(F)cc4)C3)no2)cc1` (stereo not drawn), the RP-LC retention time is reported as 1180 s. In the case of `CC1Oc2ccc(-c3csc(NC(=O)c4cccnc4)n3)cc2N(C)C1=O` (stereo not drawn), the RP-LC retention time is reported as 773 s. Work on `CC(C)NC(=O)C1=CCN(C(=O)c2ccc(F)cc2)CC1` yielded an RP-LC retention time of 714 s. `CCC1CCCCN1CCCNC(=O)c1ccnc(-c2cccs2)c1` (stereo not drawn) gave an RP-LC retention time of 627 s. `CCOC(=O)c1cnc2c(C)c(Cl)ccc2c1NCCN(C)C` gave an RP-LC retention time of 562 s. In the case of `CCn1cc(-c2nc(C(=O)NCc3cccc(F)c3)cs2)c2cccnc21`, the RP-LC retention time is reported as 983 s. `CCOC(=O)c1cc(S(=O)(=O)N2CCCC2C(=O)Nc2cccc(C)n2)cn1C` (stereo not drawn) showed an RP-LC retention time of 847 s. With `CCOc1ccc(-c2noc(Cn3ccn4nc(-c5ccc(F)cc5)cc4c3=O)n2)cc1OC` the RP-LC retention time was 819 s. `O=C(c1ccc(-n2cnnn2)cc1)N1CCN(c2ccccn2)CC1` gave an RP-LC retention time of 567 s. Compound `COc1ccc(OC)c(NC(=O)NC2CCN(c3nc4ccccc4n(C)c3=O)CC2)c1` has an RP-LC retention time of 886 s. For `Cc1ccccc1CNC(=O)C1CCCN(C(=O)C2Sc3ccccc3NC2=O)C1` (stereo not drawn), the RP-LC retention time was 760 s. Work on `CC(C)NC(=O)C1CCN(c2nc3ccc(-c4ccsc4)nc3s2)CC1` yielded an RP-LC retention time of 796 s. In the case of `Cc1ccc(-c2cn3cccnc3n2)cc1NC(=O)c1ccccc1Br`, the RP-LC retention time is reported as 682 s. `COCCCNC(=O)c1ccc(-n2nc(C)c3c2CC(C)(C)CC3=O)cc1` showed an RP-LC retention time of 711 s. In the case of `O=C(Nc1nc(-c2ccncc2)cs1)c1ccc(NS(=O)(=O)c2ccccc2)cc1`, the RP-LC retention time is reported as 589 s. With `CCc1nnc(NC(=O)C2CCN(C(=O)c3ccccc3F)CC2)s1` the RP-LC retention time was 675 s. `Cc1cnc(CCC2CCCN2C(=O)c2ccc(Cn3cncn3)o2)n1C(C)C` (stereo not drawn) showed an RP-LC retention time of 626 s. `CCOc1ccc2nc(C(=O)NC3CCCC3)cn2n1` gave an RP-LC retention time of 822 s. `CN(CC(=O)O)S(=O)(=O)c1ccc(Cl)c(-c2nnc(-c3ccccc3)o2)c1` gave an RP-LC retention time of 819 s. For `O=C(c1ccc(OCC2CCCN(C(=O)c3cccs3)C2)cc1)N1CCOCC1` (stereo not drawn), the RP-LC retention time was 620 s. Work on `CCCc1ccc(S(=O)(=O)N2CCc3c(c(-c4nnc(-c5ccccc5F)o4)nn3C)C2)cc1` yielded an RP-LC retention time of 1070 s. For `Cc1ccc(CNC(=O)C2(CCO)CCN(Cc3ccccc3)C2)o1` (stereo not drawn), the RP-LC retention time was 656 s. Compound `CCc1nn2c(CNC(=O)c3cccc(C)c3)c(-c3ccccc3)nc2s1` has an RP-LC retention time of 936 s. For `CC(C)n1cnc2cc(CNC(=O)c3cnccn3)ccc21`, the RP-LC retention time was 572 s. Compound `O=C(NCc1cccs1)C1CCCN(C(=O)c2cc(-c3ccncc3)n[nH]2)C1` (stereo not drawn) has an RP-LC retention time of 574 s. Work on `CCOc1ccccc1NC(=O)Cn1cnc2nc(N3CCCC(C(=O)NC4CC4)C3)sc2c1=O` (stereo not drawn) yielded an RP-LC retention time of 723 s. For `Cc1ccc(C)c(-c2csc(Cc3nc(-c4ccc5c(c4)OCO5)no3)n2)c1`, the RP-LC retention time was 1260 s. Compound `Cc1c(S(=O)(=O)N2CCC(C(=O)NCc3csc(-c4ccccc4)n3)CC2)cnn1C(F)F` has an RP-LC retention time of 868 s. `CC1CCN(S(=O)(=O)c2ccc3nn(Cc4cc(F)cc(F)c4)c(=O)n3c2)CC1` gave an RP-LC retention time of 1040 s. For `CC(NC(=O)C1CCCN(c2nccnc2Oc2ccccc2)C1)c1ccccc1` (stereo not drawn), the RP-LC retention time was 986 s. `Cc1ccccc1NS(=O)(=O)c1cn(CC(C)C)c2ncccc12` gave an RP-LC retention time of 976 s. Work on `CCCc1noc(-c2ccnc(-n3cnc(C(=O)NC4CCCCCC4)c3)c2)n1` yielded an RP-LC retention time of 1060 s. In the case of `Cc1ccc2c(c1)c(=O)c1c(n2C)CCN(CC(=O)Nc2ccccc2Cl)C1`, the RP-LC retention time is reported as 640 s. Work on `COc1cccc(NC(=O)C2CCCN(c3nc4ccsc4c(=O)n3-c3cccc(OC)c3)C2)c1` (stereo not drawn) yielded an RP-LC retention time of 921 s. Work on `C=CCN1C(=O)COc2ccc(-c3csc(NC(=O)CC)n3)cc21` yielded an RP-LC retention time of 837 s. Compound `COc1ccc(-c2nc3ncccn3c2NCc2ccccc2)cc1` has an RP-LC retention time of 717 s. With `Cn1c(=O)c2ccn(CC(=O)N3CCN(c4ccccn4)CC3)c2n(C)c1=O` the RP-LC retention time was 546 s. `CN(CC1CCOCC1)S(=O)(=O)c1ccccc1C(F)(F)F` gave an RP-LC retention time of 861 s. In the case of `Cc1cc(-c2cc(S(=O)(=O)NCC(C)c3ccccc3)c(C)s2)n[nH]1` (stereo not drawn), the RP-LC retention time is reported as 890 s. Work on `Cc1cccc(C)c1NC(=O)NC1CCN(c2nc3ccccc3n(C)c2=O)CC1` yielded an RP-LC retention time of 838 s. With `O=C(NCC#CCN1CCc2ccccc2C1)c1ccc(Cl)s1` the RP-LC retention time was 587 s. `Cn1c(N2CCCC(C(=O)N3CCN(c4ccccc4F)CC3)C2)cc(=O)n(C)c1=O` (stereo not drawn) gave an RP-LC retention time of 765 s. In the case of `O=C(Nc1cccc(C(F)(F)F)c1)C1CCc2nc(N3CCOCC3)ncc2C1` (stereo not drawn), the RP-LC retention time is reported as 900 s. Compound `COc1ccc(-c2noc(Cc3nnc(-c4ccc(F)cc4)o3)n2)cc1OC` has an RP-LC retention time of 889 s. In the case of `O=C(C1=NNc2ccccc2S1(=O)=O)N1CCCCC1`, the RP-LC retention time is reported as 773 s. Compound `COc1ccc(-c2nc3cnccn3c2Nc2ccc(C(=O)NC3CCCCC3)cc2)cc1` has an RP-LC retention time of 798 s. `COc1ccc(N2CCN(C(=O)c3sc4cccc(F)c4c3OC)CC2)cc1` gave an RP-LC retention time of 998 s. For `FC(F)(F)c1cccc(Nc2c(-c3ccc(Cl)cc3)nc3cnccn23)c1`, the RP-LC retention time was 1090 s. Work on `CCOC(=O)c1nn(-c2ccc(F)cc2)c(=O)c2c(NC(=O)C3CCCCC3)scc12` yielded an RP-LC retention time of 1250 s. In the case of `CCN1CCn2cc(S(=O)(=O)Nc3ccccc3F)cc2C1=O`, the RP-LC retention time is reported as 1070 s. Compound `CC(C)Oc1ccc(-c2noc(Cn3c(=O)n(C(C)C)c(=O)c4ccccc43)n2)cc1` has an RP-LC retention time of 1140 s. In the case of `O=C(Cc1cccc(Cl)c1)N1[C@H]2CC[C@@H]1c1cnc(-c3ccccc3)nc1C2`, the RP-LC retention time is reported as 990 s. `CCn1nccc1C(=O)N1CCCC1c1cccc(C)c1` (stereo not drawn) showed an RP-LC retention time of 849 s. In the case of `CCn1ncc2ccc(C(=O)NC)cc21`, the RP-LC retention time is reported as 608 s. Work on `CCc1nc(OCC(=O)Nc2ccc(C)c(F)c2)c2ccccc2n1` yielded an RP-LC retention time of 872 s. With `CCc1ccc(-c2cn3ccn(-c4ccc(F)cc4)c(=O)c3n2)cc1` the RP-LC retention time was 900 s. `COc1ccc(OC)c(S(=O)(=O)NCCc2ncc(C)n2C(C)C)c1` showed an RP-LC retention time of 540 s. For `COc1ccc(CCNC(=O)Cn2ccc3ccc(-c4nnc(C)o4)cc32)cc1OC`, the RP-LC retention time was 715 s. Compound `CCN1CCN(Cc2ccc(C(=O)NCc3ccc(C(F)(F)F)cc3)cc2)C(=O)C1=O` has an RP-LC retention time of 744 s. `NC(=O)C1CCN(C(=O)c2ccc(Cn3c(=O)c4cccn4c4cccnc43)cc2)CC1` gave an RP-LC retention time of 655 s. In the case of `Cc1ccc(CNC(=O)N2CCC(N3CCN(Cc4ccccc4)C(=O)C3=O)CC2)cc1`, the RP-LC retention time is reported as 768 s. In the case of `COc1ccc(-c2ncccc2CNS(=O)(=O)c2ccc(C(F)(F)F)cc2)cc1`, the RP-LC retention time is reported as 764 s. `CC(=O)Nc1cc(C(=O)NCc2nn(Cc3ccccc3)c3ccccc23)ccc1C` showed an RP-LC retention time of 794 s. Work on `Cc1ccc(N2C(=O)N(CC(=O)N3CCCCC3C)C3CS(=O)(=O)CC32)cc1Cl` (stereo not drawn) yielded an RP-LC retention time of 851 s. `Cc1ccc(-c2nnc(Cc3nc(-c4ccc(Cl)cc4)no3)o2)cc1C` gave an RP-LC retention time of 1220 s. Compound `CCc1ccc(NC(=O)N2CCCC(C)(C(=O)NCc3ccc(F)cc3)C2)cc1` (stereo not drawn) has an RP-LC retention time of 972 s. `CSc1ccc(-c2nc3cnccn3c2Nc2ccc(C(=O)NC(C)C)cc2)cc1` gave an RP-LC retention time of 745 s. `CCn1c(=O)sc2cc(S(=O)(=O)N3CCC(C(=O)NC4CCC(C)CC4)CC3)ccc21` (stereo not drawn) showed an RP-LC retention time of 967 s. `COc1cccc(N2CCN(C(=O)C3CCN(C(=O)C4Sc5ccccc5NC4=O)CC3)CC2)c1` (stereo not drawn) showed an RP-LC retention time of 709 s. For `O=C(NCCN1CCOCC1)c1csc(N2CCN(c3ccccc3)CC2)n1`, the RP-LC retention time was 650 s. In the case of `CCOc1ccccc1CN1C[C@@H](CO)[C@H](c2ccncc2)C1`, the RP-LC retention time is reported as 620 s. For `Cn1cc2c3c(cccc31)CN(C(=O)c1ccccc1Cl)CC2`, the RP-LC retention time was 975 s. Work on `Cc1cnc(C(=O)N2[C@H]3CC[C@@H]2c2cnc(-c4ccc(F)cc4)nc2C3)cn1` yielded an RP-LC retention time of 874 s. For `CC(C)(C)c1ccc(O)c(NC(=O)c2cn(-c3ccc(S(=O)(=O)N4CCCC4)cc3)cn2)c1`, the RP-LC retention time was 1020 s. For `CCOc1ncccc1CNC(=O)c1sccc1C`, the RP-LC retention time was 822 s. Compound `Cc1noc(/C=C\c2ccc(S(=O)(=O)N3CCN(C)CC3)cc2)c1NC(=O)C1CC1` has an RP-LC retention time of 617 s. Work on `COc1ccc(-c2nnc(-c3ccccc3Cl)o2)cc1S(=O)(=O)N(C)C` yielded an RP-LC retention time of 895 s. Work on `Cc1nn(-c2ccc(N3CCCCC3)nn2)c(C)c1CCC(=O)N1CCN(c2ncccn2)CC1` yielded an RP-LC retention time of 656 s. With `NS(=O)(=O)c1ccc(CCNCc2ccc(-c3cc(Cl)ccc3Cl)o2)cc1` the RP-LC retention time was 712 s. `CCOC(=O)c1noc2ncnc(NC3CCN(Cc4ccccc4)CC3)c12` showed an RP-LC retention time of 616 s. Work on `N#Cc1ccc(-c2nc(-c3ccc4c(c3)ncn4CCN3CCCC3)no2)cc1` yielded an RP-LC retention time of 638 s. In the case of `O=c1c2cc3c(cc2nc(SCc2nc(-c4ccc(F)cc4)no2)n1-c1ccc(F)cc1)OCO3`, the RP-LC retention time is reported as 1170 s. In the case of `Cc1ccc(NC(=O)C2CCc3sc(C(=O)N(C)C)cc3C2)c(C)c1` (stereo not drawn), the RP-LC retention time is reported as 799 s. `Cc1cccnc1NC(=O)c1c(O)c2cc(F)cc3c2n(c1=O)C(C)CC3` (stereo not drawn) gave an RP-LC retention time of 848 s. `Cc1oc(C2CCN(C(=O)Nc3cccc(Cl)c3C)CC2)nc1C(=O)N1CCCC1` showed an RP-LC retention time of 813 s. With `CC(C(=O)N1CCN(c2ccccn2)CC1)n1ccc2cc(S(=O)(=O)N3CCCC3)ccc21` (stereo not drawn) the RP-LC retention time was 660 s. `O=C(c1nc2ccccc2nc1Cl)N1CCN(c2ccccn2)CC1` gave an RP-LC retention time of 597 s. For `Cc1ccc(S(=O)(=O)N2CCN(CCc3cn(C)c4ncccc34)CC2)cc1`, the RP-LC retention time was 632 s.
